# Experimental data: ChEMBL document CHEMBL5465560, “Selectivity Literature for EUbOPEN Chemogenomic Library” (2024)
# Tests used:
# [1] = molecular target: T1, Mitogen-activated protein kinase kinase kinase kinase 2 (Homo sapiens) (UniProt Q12851); experiment: Selectivity interaction (Kinase panel (KiNativ target engagement assay in Jurkat cells)) EUB0001635a MAP4K2; format: cell-based; conditions: Selectivity number of off-targets 0.0, Selectivity number of targets 233.0, Source Knowledge https://www.sciencedirect.com/science/article/pii/S2451945619300674?via%3Dihub, at 1 µM
# T1 sequence (whole entry): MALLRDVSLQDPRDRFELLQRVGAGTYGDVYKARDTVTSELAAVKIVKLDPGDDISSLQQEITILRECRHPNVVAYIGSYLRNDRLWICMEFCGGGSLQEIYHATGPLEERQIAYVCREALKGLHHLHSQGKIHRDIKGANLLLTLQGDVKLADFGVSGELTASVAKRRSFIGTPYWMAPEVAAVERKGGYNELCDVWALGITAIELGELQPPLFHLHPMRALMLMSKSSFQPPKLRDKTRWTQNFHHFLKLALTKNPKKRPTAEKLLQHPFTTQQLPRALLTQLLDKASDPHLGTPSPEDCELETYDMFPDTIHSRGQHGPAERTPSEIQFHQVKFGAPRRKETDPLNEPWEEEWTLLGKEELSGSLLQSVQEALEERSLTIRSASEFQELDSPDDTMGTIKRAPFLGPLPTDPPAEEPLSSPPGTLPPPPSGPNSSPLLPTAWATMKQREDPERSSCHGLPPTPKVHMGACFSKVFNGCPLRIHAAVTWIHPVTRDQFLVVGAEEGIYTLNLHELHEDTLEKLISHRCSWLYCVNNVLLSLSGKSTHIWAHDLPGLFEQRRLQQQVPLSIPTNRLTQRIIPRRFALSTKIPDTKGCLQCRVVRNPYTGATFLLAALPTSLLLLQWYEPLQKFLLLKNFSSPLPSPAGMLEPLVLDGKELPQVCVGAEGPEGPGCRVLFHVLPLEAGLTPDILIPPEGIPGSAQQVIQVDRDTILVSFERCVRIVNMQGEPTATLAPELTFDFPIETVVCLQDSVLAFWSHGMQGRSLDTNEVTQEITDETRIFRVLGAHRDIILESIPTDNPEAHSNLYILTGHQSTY
# [2] = molecular target: Mitogen-activated protein kinase 1 (Homo sapiens, UniProt P28482); experiment: Selectivity interaction (Kinase panel (KiNativ target engagement assay in Jurkat cells)) EUB0001635a MAPK1; format: cell-based; conditions: Selectivity number of off-targets 0.0, Selectivity number of targets 233.0, Source Knowledge https://www.sciencedirect.com/science/article/pii/S2451945619300674?via%3Dihub, at 1 µM
# [3] = molecular target: T2, Serine/threonine-protein kinase ULK2 (Homo sapiens) (UniProt Q8IYT8); experiment: Selectivity interaction (KinomeScan (DiscoverX)) EUB0000045b ULK2
# T2 sequence (whole entry): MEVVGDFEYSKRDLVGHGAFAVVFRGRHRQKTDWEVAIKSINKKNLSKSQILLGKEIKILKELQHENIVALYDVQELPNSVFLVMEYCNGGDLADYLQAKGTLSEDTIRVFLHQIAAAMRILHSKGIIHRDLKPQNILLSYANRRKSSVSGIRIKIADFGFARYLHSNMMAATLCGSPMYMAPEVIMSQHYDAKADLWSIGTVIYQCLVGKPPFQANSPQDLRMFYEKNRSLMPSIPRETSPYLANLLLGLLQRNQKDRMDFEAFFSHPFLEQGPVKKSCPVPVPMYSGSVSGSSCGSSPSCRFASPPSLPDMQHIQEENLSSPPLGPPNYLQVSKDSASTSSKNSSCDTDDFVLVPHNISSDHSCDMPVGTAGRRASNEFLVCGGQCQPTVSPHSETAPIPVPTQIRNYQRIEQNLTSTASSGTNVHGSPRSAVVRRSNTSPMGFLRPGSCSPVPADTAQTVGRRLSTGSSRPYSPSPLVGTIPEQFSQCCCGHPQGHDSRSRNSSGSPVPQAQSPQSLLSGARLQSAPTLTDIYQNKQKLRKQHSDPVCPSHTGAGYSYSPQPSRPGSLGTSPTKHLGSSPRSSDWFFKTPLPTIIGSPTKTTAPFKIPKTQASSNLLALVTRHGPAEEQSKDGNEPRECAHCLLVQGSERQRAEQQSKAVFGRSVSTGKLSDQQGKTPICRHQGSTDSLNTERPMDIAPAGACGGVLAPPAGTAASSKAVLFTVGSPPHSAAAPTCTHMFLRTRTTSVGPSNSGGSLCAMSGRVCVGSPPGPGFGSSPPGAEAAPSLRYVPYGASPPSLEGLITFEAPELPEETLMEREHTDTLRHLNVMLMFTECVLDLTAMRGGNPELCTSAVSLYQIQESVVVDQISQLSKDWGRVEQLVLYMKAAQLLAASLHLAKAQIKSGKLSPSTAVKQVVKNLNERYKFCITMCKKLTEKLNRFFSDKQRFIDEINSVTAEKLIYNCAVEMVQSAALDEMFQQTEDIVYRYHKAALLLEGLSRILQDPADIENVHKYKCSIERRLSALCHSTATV
# [4] = molecular target: T3, Histone-lysine N-methyltransferase SETD7 (Homo sapiens) (UniProt Q8WTS6); experiment: Selectivity interaction (Methyltransferase screen (radiometric assays, panel of 8 PRMTs, 21 protein lysine methyltransferases, 3 DNA methyltransferases, and one RNA methyltransferase)) EUB0000271b SETD7
# T3 sequence (whole entry): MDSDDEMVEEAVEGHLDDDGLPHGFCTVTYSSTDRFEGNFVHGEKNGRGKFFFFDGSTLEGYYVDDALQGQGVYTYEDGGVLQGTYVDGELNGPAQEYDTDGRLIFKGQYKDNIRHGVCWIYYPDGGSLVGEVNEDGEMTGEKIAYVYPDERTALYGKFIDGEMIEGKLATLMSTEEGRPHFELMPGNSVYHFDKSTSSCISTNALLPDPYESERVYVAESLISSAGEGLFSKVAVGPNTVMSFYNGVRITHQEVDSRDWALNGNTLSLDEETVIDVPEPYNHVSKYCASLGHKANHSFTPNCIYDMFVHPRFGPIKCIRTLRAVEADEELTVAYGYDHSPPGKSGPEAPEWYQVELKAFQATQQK
# [5] = molecular target: CDK7/Cyclin H/MNAT1 (Homo sapiens) (UniProt P51946+P50613+P51948); experiment: Selectivity interaction (Millipore kinase profiler) EUB0000124b CDK7; format: protein-complex assay; conditions: at 10 µM
# [6] = molecular target: Serine/threonine-protein kinase N2 (Homo sapiens, UniProt Q16513); experiment: Selectivity interaction (Millipore kinase profiler) EUB0000124b PKN2; conditions: at 10 µM
# Serine/threonine-protein kinase N2, sequence (Q16513 whole entry, looked up): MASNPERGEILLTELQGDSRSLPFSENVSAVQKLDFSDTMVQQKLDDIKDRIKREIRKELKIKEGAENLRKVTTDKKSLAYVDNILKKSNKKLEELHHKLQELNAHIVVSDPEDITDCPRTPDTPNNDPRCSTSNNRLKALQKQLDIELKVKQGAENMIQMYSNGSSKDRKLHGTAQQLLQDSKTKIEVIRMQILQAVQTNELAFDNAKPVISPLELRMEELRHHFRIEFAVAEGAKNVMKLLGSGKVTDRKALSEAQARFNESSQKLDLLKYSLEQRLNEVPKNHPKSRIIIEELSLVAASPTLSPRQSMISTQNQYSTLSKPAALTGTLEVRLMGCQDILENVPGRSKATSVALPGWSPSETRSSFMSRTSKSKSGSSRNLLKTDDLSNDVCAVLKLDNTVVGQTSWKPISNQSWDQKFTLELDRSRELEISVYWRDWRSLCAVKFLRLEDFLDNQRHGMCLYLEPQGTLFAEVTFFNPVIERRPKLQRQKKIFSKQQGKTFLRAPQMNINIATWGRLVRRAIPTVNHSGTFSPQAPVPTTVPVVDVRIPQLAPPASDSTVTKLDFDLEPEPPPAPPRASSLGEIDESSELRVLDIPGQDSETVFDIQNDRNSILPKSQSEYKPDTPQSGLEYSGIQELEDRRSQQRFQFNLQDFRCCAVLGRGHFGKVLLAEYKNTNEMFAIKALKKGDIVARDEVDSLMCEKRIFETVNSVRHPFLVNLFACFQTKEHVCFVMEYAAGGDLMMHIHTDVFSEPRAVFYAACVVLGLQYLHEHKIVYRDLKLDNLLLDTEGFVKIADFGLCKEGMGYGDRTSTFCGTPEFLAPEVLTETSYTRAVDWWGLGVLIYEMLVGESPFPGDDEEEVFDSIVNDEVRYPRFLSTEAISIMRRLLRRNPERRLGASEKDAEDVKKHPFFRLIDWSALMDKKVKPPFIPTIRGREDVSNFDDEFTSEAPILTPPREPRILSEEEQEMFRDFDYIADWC
# Mitogen-activated protein kinase 1, sequence (P28482 whole entry): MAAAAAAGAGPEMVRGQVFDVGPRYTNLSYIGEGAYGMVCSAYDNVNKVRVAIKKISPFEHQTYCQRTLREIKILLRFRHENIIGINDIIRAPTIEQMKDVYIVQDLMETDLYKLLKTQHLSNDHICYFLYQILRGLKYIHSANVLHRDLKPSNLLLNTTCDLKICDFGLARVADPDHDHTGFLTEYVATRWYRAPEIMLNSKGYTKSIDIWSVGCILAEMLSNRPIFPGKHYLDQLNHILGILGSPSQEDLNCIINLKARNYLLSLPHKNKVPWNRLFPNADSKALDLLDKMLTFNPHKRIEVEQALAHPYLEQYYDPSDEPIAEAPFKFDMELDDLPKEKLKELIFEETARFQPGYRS
compound,measurement,setting,value
C=CC(=O)Nc1ccc(C(=O)Nc2[nH]nc3c2CN(C(=O)N[C@H](CN(C)C)c2ccccc2)C3(C)C)cc1,% of engagement,[1],-6.1%
same,% of engagement,[2],0.4%
C=CC(=O)Nc1cc(-n2c(=O)ccc3cnc4ccc(-c5ccc(NS(C)(=O)=O)cc5)cc4c32)ccc1C,% of control,[3]; at 1 µM,100%
same,% of control,[3]; at 10 µM,92%
Cc1cc(C)cc([C@@H]2c3cc(C)ccc3NC(=O)CN2C(=O)c2ccc(Br)s2)c1,% of activity,[4]; at 1 µM,95.3%
same,% of activity,[4]; at 10 µM,95.7%
CC(=O)Nc1cccc(-n2c(=O)n(C3CC3)c(=O)c3c(Nc4ccc(I)cc4F)n(C)c(=O)c(C)c32)c1,% of control,[5],106%
same,% of control,[6],98%
